One data set relates to AR. The data set can be described thus: AR antagonistic activity: AR / PSA ARE1 luciferase reporter gene assay in transfected LNCaP cells stimulated with 1 nM DHT. The format is cell-based. Particulars: treatment concentration: 3.3 µM, 24 h, normalised to 0.1% DMSO and 30 µM enzalutamide. The procedure: LNCaP cells were plated in a 6-well plate (Corning, 3516) at 8 × 10^5 cells/well.
AR and PSA ARE1 reporter gene plasmids (Bio (Anhui) Co., Ltd.) and transfection reagents Lipo3000 and P3000 (Lipofectamine™ 3000) (a total of 2.5 µg of plasmids, i.e., 1.25 µg of each plasmid, were added to each well) were left to stand and incubated for 10 min, and then 250 µL of the above transfection reagents were added dropwise to each well containing cells and co-incubated with the cells for 24 h.
The cells were washed with PBS, and the medium was replaced with a phenol red-free RPMI-1640 medium containing 5% carbon adsorption serum (or 10% fetal bovine serum and 1% penicillin and streptomycin). The cells were re-plated onto a 96-well plate (Corning, 3603) according to the number of cells plated (2 × 10^4 cells/well).
After cell plating, the test compound (or DMSO or positive control) was added. After at least 30 min of incubation, DHT (dihydrotestosterone) was added to the culture system at a final concentration of 1 nM. The culture system was then incubated in a carbon dioxide incubator.
Test compound: 10 mM stock solution, with a final concentration of 3.3 µM or 6.7 µM. Negative control: 0.1% DMSO. Positive control: 30 µM enzalutamide.
After the test compound (or DMSO or positive control) and DHT were co-incubated for 24 h, the luciferase signal was detected using the Vazyme Bright-Lite substrate. The medium was added at 70 µL/well, and the plate was shaken for 2 min, followed by reading of the luciferase signal.
Assay robustness was confirmed using the DMSO and low concentration control data: Ave_H = Ave(DMSO) [formula] Ave_L = Ave (30μMenzalutamide) [formula] Inhibition rate (%) = (Ave_H−Sample)/(Ave_H−Ave_L) × 100% [formula] Ave_H: the measurement of the negative control (0.1% DMSO); Ave_L: the measurement of the positive control (30 µM enzalutamide); Sample: the measurement of the test compound; The corresponding activity test results for the test compounds were specified in Table 1. Table 1. Corresponding activity test results for compounds disclosed herein
For orientation: A reporter such as luciferase makes a cellular process visible.

Data set [1] in a line: Metabolic stability assay in liver microsomes. Particulars: pH 7.4, human liver microsome 0.5 mg/mL, 1 mM NADPH, compound 1 µM, 37 °C; for microsomal CLint at 1 µM: read-out: In vitro Clint; for half-life at 1 µM: read-out: In vitro T1/2. The format is in vitro ADME. The method, then: The metabolic stability of compounds disclosed herein in liver microsomes was determined using the following method.
• 1. Liver microsome source: Human liver microsome (Corning, 452117) • 2. Na2HPO4 (Tianjin Guangfu Fine Chemical Research Institute, 20180130) • 3. KH2PO4 (Tianjin Guangfu Fine Chemical Research Institute, 20180920) • 4. MgCl2 (Tianjin Guangfu Fine Chemical Research Institute, 20191216) • 5. NADPH (Solarbio, 1216C022) • 6. Positive control compound verapamil (Sigma, MKBV4993V) • 7. AB Sciex Triple Quad 4000 liquid chromatography-mass spectrometry system
1. Preparation of 100 mM phosphate-buffered saline (PBS): 7.098 g Na2HPO4 was dissolved in 500 mL of purified water by sonication to give solution A. 3.400 g of KH2PO4 was dissolved in 250 mL of purified water by sonication to give solution B. Solution A was placed on a stirrer, and solution B was added slowly until the pH reached 7.4, so as to give a 100 mM PBS buffer. 2. Preparation of reaction system The reaction system was prepared according to the table below.
3. The reaction system was pre-incubated in a 37 °C water bath for 10 min. 40 µL of 10 mM NADPH solution (NADPH was dissolved in 100 mM phosphate-buffered saline) was added to the reaction system, with the final concentration of NADPH being 1 mM. A negative control was prepared by replacing the NADPH solution with 40 µL of phosphate-buffered saline. The negative control was used to exclude the effect of the chemical stability of the compound itself. 4. The reaction was initiated by adding 4 µL of 100 µM compound disclosed herein or positive control compound verapamil to the reaction system at a final concentration of 1 µM. 5. After 0.5 min, 15 min, 30 min, 45 min, and 60 min of mixing well by using a vortex oscillator, 50 µ L of the incubated sample was taken out, and glacial acetonitrile containing an internal standard of 4 folds was added to terminate the reaction. The sample was centrifuged at 3,220 g for 45 min. 90 µL of the supernatant was transferred to a feeding plate after the centrifugation was completed, and 90 µL ultrapure water was added. The mixture was well mixed for LC-MS/MS analysis.
All data were calculated by using Microsoft Excel software. The peak areas were determined by using an extracted ion chromatogram. The in vitro half-life (T1/2) of the test compound was determined by linear fitting of the natural logarithm of the elimination proportion of the test compound over time. In vitro half-life (T1/2) was calculated by the slope k: in vitro T1/2 = 0.693/k [formula]
The in vitro intrinsic clearance (in vitro CLint, unit: µL/min/mg protein) was calculated using the following formula: in vitro CLint = k × volume of incubation solution/enzyme protein content; [formula]
In general terms: Microsomes from liver hold many membrane-bound enzymes, among them those of drug oxidation.

A short description of a further data set: in vitro. Particulars: human, blood.
Data set [2] has as its system C57BL/6 mice. Particulars: mouse, in vivo.
Excerpt: (§1) Animal information: C57BL/6 mice (male, aged 4-6 weeks, about 18-20 g), purchased from Shanghai Lingchang Biotechnology Co., Ltd. The mice were bred in an SPF-level environment within independently ventilated cages.
(§2) Skin preparation: After 1-2 weeks of acclimation, the hairs in a 2 cm × 3 cm area of the back of the mice were shaved to confirm that the hairs of the mice were in the telogen phase (the skin was pink) and the skin was not damaged.
(§3) Treatment: On day 3 after shaving, the mice were grouped for treatment. […] The control group received the control solvent. 12 mice were in each group.
(§4) The mice were weighed on days 10, 13, 18, 21, 25, and 30, and the hair growth state was scored and photographed.
(§5) The scoring criteria are as follows: • 0: no growth, with pink skin in the shaved area; • 1: the skin in the shaved area was gray (an increase of less than 20%); • 2: the skin in the shaved area was black (more than 20% but less than 40%); • 3: the skin in the shaved area was black with a little hair growth (more than 40% but less than 60%); • 4: the skin in the shaved area was black with partial hair growth (more than 60% but less than 80%); • 5: basically complete hair growth (80%-100% growth) in the shaved area.
For data set [3] the following is noted: 5 µM.
Description: (§6) 1 mM stock solutions of the test compounds were prepared in DMSO, and a 1 mM stock solution of the reference compound propantheline was prepared in acetonitrile.
(§7) 4 µL of test compound (or reference compound) stock solution was added to 796 µL of pre-incubated human blood (whole blood) at a final concentration of 5 µM. The final concentration of the solvent was 0.5%. At different time points (including 5 min, 15 min, 30 min, 60 min, and 120 min), a 50 µL aliquot of the whole blood containing the sample was added to a new tube and incubated in a 37 °C water bath with shaking at 60 rpm. The treatment was performed in duplicate. At designated time points, 300 µL of room-temperature quenching solution (a solution of acetonitrile containing internal standards (100 nM alprazolam, 500 nM labetalol, and 2 µM ketoprofen)) was added to the whole blood sample containing the sample to terminate the reaction. 50 µL of whole blood containing the sample was added to a new tube containing 300 µL of room-temperature quenching solution to prepare a sample at 0 min. All samples were vortexed for 5 min. The samples in the plate were centrifuged at 3220 g for 30 min at 4 °C to precipitate the proteins. 100 µL of the supernatant was transferred to a new 96-well plate containing 100 µL of water for LC-MS/MS analysis.
(§8) The peak area ratio was determined by using an extracted ion chromatogram. The proportion of remaining compound at each time point was calculated according to the following formula: Remaning proporion t min (%) = peak area ratio t min / peak area ratio 0 min × 100% [formula] • Peak area ratio t min: peak area ratio of reference compound to test compound at t min; • Peak area ratio 0 min: peak area ratio of reference compound to test compound at time zero.
(§9) The slope value was determined by linear regression on the curve of the natural logarithm of the remaining proportion of the test compound versus the incubation time.
(§10) Determination of in vitro half-life (in vitro t1/2) from the slope value: in vitro t1/2 = 0.693/k [formula] in the formula, k is the rate constant (k = -slope value)
In data set [4] the test system is C57BL/6 mice. As to the kind of experiment: In vivo pharmacodynamic study 1: hair growth scoring in shaved telogen-phase mice, topical treatment. The note with it: for Score (mean±SD): hair growth score 0-5, topical twice daily, compound 001 2 wt%, compound 008 0.5 wt%.
Excerpt: as §1, §2, §3, §4, §5
A short description of the next data set: Whole blood stability. The note with it: human.
In data set [5] the test system is C57BL/6 mice. As to the kind of experiment: In vivo pharmacodynamic study 2: hair growth scoring in shaved telogen-phase mice, topical treatment. The note with it: for Score (mean±SD): hair growth score 0-5, 0.5 wt% topical twice daily. From the text:
Vehicle: propylene glycol/ethanol (30:70, v/v)
A 1 cm × 1 cm area in the center of the back skin was selected as the treatment area.
The control group received the control solvent. 12 mice were in each group.
The mice were weighed on days 9, 12, 15, 19, and 22, and the hair growth state was scored and photographed.

The mark [6] stands for this setting: at the investigated doses (0.5 wt%, BID topical).

Like-named read-outs stand apart in the source and are kept apart here. Marks after values point to notes of the source that are not given here.

Description for Whole blood stability: as §6, §7, §8, §9, §10
Description for in vitro: as §6, §7, §8, §9, §10

Take `CCOC(=O)C(C)(O)C(=O)Nc1cnc(C#N)c(SC)c1` (single isomer, unassigned) [Compound 016B]: the “AR antagonism (inhibition rate, %)” value with AR was 90.50^a %. In data set [1] (microsomes), the microsomal CLint at 1 µM turned out to be 88.3 µL/min/mg and the half-life at 1 µM amounted to 0.262 h. Besides, the half-life at 5 µM in the data set “in vitro” worked out at 1.69 h.
Consider `CCOC(=O)C(C)(O)C(=O)Nc1cnc(C#N)c(C(F)(F)F)c1` (stereo not drawn) [Compound 001, Ethyl 3-[[6-cyano-5-(trifluoromethyl)-pyridin-3-yl]amino]-2-hydroxy-2-methyl-3-oxopropanoate], for which the “impact on the body weight of the mice” value with C57BL/6 mice [2] is “no significant impact”. Besides, the “signs of erythema, dehiscence, desquamation, and the like on the skin” value in the data set with C57BL/6 mice [2] is on record as “no signs”. The “AR antagonism (inhibition rate, %)” value in the data set with AR was 86.6^a %. Besides, the “Human whole blood half-life T1/2” value in data set [3] is 2.9982 h. Moreover, the “Score (mean±SD)” value is on record as 0 in the data set on C57BL/6 mice [4] (Day 0); 0.6±0.5 with C57BL/6 mice [4] (Day 10); 0.9±0.9 in the data set on C57BL/6 mice [4] (Day 13); 1.3±1.4 with C57BL/6 mice [4] (Day 18); 1.9±1.8 in the data set on C57BL/6 mice [4] (Day 21); 2.4±2.2 with C57BL/6 mice [4] (Day 25). Moreover, in the data set on C57BL/6 mice [4] (Day 30), the “Score (mean±SD)” value was 3.0±1.8. Moreover, in the data set on C57BL/6 mice [4] (compound 001 at 2%, compound 008 at 0.5%, BID topically at 20 µL/cm^2), the “effect on mouse hair growth” value was “significant promoting effect”. Also, the “day of the treatment from which hair growth was significantly promoted” value in the data set with C57BL/6 mice [4] (vs. vehicle control, 001 P < 0.01, 008 P < 0.05) is not below 10 days.
For `CC(C)OC(=O)C(C)(O)C(=O)Nc1cnc(C#N)c(C(F)(F)F)c1` (stereo not drawn) [Compound 013, Isopropyl 3-[[6-cyano-5-(trifluoromethyl)-pyridin-3-yl]amino]-2-hydroxy-2-methyl-3-oxopropanoate], the “AR antagonism (inhibition rate, %)” value with AR is recorded as 90.0^a %. This compound returned a half-life at 5 µM in the data set “Whole blood stability” of 5.82 h.
As for `CCOC(=O)[C@@](C)(O)C(=O)Nc1cnc(C#N)c(SC)c1` [Compound 016A, ethyl (2S)-3-[(6-cyano-5-methylthio-pyridin-3-yl)amino]-2-hydroxy-2-methyl-3-oxopropanoate], the “AR antagonism (inhibition rate, %)” value in the data set with AR is recorded as 99.98^a %. Besides, the microsomal CLint at 1 µM in data set [1] (human liver microsomes) worked out at 91.8 µL/min/mg. Also, the half-life at 1 µM in data set [1] (human liver microsomes) was found to be 0.252 h. This compound also had a half-life at 5 µM in “Whole blood stability” of 2.2 h. Moreover, the “effect on hair growth” value with C57BL/6 mice [5] (0.5 wt%, BID topically at 20 µL/cm^2) is “significant promoting effect”. The “Score (mean±SD)” value with C57BL/6 mice [5] (Day 0) was determined as 0; in the data set on C57BL/6 mice [5] (Day 9) it was 0.1±0.3; in the data set with C57BL/6 mice [5] (Day 12) it was 0.1±0.3; in the data set on C57BL/6 mice [5] (Day 15), 0.5±0.8; in the data set on C57BL/6 mice [5] (Day 19), 1.7±1.5; in the data set on C57BL/6 mice [5] (Day 22), 2.9±1.6. Besides, in the data set with C57BL/6 mice [5] (setting [6]), the “impact on the body weight of the mice” value is listed as “no significant impact”. In addition, in the data set with C57BL/6 mice [5] (setting [6]), the “signs of erythema, dehiscence, desquamation, and the like on the skin” value is “no signs”. For the same compound, the “day of the treatment from which hair growth was significantly promoted” value in the data set on C57BL/6 mice [5] (vs. vehicle control, P < 0.0001) is not below 19 days.

These data come from patent EP4772498A1, “COMPOUND ACTING AS ANDROGEN RECEPTOR ANTAGONIST” (China Pharmaceutical University, priority 2023, dated 2025).
